In PubChem BioAssay (NCI) one finds TGI and GI50 data, which are given here for 26 compounds.

Some test systems named below: MDA-N; MDA-MB-435; DLD-1 colon; KM20L2 colon; LXFL 529 NSCLC; M19-MEL melanoma; HOP-18 NSCLC; XF 498 CNS.
Experiment in all cases: NCI-60 cell line screen, 48 h

≈ marks a conversion by molar mass, not a printed value. Where “and” joins values, the source holds several entries; their conditions need not be identical. Equal values may be shown once.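 Five compound concentrations were applied to cells in 96-well plates for 48 hours; endpoints were derived by simple linear interpolation of the resulting dose-response curve. GI50: concentration for 50% inhibition of growth. At the TGI there is no net growth.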

`Cc1cc(N=Nc2ccccc2C)ccc1N` returned a TGI in the test with MDA-N of 39.6 µM. Further, in the test on MDA-MB-435, the GI50 is 12.7 µM; the TGI was 49.3 µM and 46 µM.
Take `O=C(c1nc2ccccc2[nH]c1=O)C(O)c1ccccc1` (stereo not given): the TGI in the test with DLD-1 colon, in the test with KM20L2 colon, in the test with LXFL 529 NSCLC and in the test on M19-MEL melanoma was more than 100 µM in each case.
For `CC1(c2ccccc2Cl)C(C#N)C(=O)NC(=O)C1C#N` (stereo not given), the TGI in the test on DLD-1 colon, in the test on KM20L2 colon, with LXFL 529 NSCLC and in the test on M19-MEL melanoma was more than 100 µM in each case.
Turning to `CC1(C)CC(=O)C2=C(C1)OC(N)=C(c1nc(-c3ccccc3)cs1)C2c1ccc(Br)cc1` (stereo not given), in the test with MDA-N, the GI50 is 74.3 µg/mL (≈ 146 µM) and the TGI was more than 150 µg/mL. Moreover, in the test with MDA-MB-435, the GI50 was 92.6 µg/mL and the TGI was more than 150 µg/mL.
In the case of `COc1ccc(CCC2c3cc(OC)c(OC)cc3CCN2C)cc1OC` (stereo not given), the TGI in the test with HOP-18 NSCLC, in the test with DLD-1 colon, in the test on KM20L2 colon, with LXFL 529 NSCLC and in the test with M19-MEL melanoma was more than 100 µM in each case.
Take `COCOCC/C=C/C=O`: the TGI with HOP-18 NSCLC, with DLD-1 colon, with KM20L2 colon, in the test with LXFL 529 NSCLC and with XF 498 CNS was more than 100 µM each time.
Consider `CC12CCC(=O)N1c1ccc([N+](=O)[O-])cc1N2` (stereo not given), for which the TGI with HOP-18 NSCLC, in the test with DLD-1 colon, with KM20L2 colon, in the test with LXFL 529 NSCLC and in the test on M19-MEL melanoma was more than 100 µM throughout.
In the case of `O=C(O)Cc1cccnc1`, the TGI in the test on MDA-N and in the test on MDA-MB-435 was more than 100 µM in each case.
As to `Cc1ccc(S(=O)(=O)N/N=C(/CC(=O)c2c(C)n([O-])c3ccccc3[n+]2=O)C(=O)Nc2ccccc2C)cc1`, the TGI in the test with HOP-18 NSCLC, in the test on DLD-1 colon, in the test on KM20L2 colon, with LXFL 529 NSCLC and in the test with M19-MEL melanoma was more than 100 µM throughout.
On to `O=C(O)/C=C/c1nc2ccccc2c(=O)o1`, for which the TGI in the test with HOP-18 NSCLC, in the test with DLD-1 colon, with KM20L2 colon, with LXFL 529 NSCLC and with M19-MEL melanoma was more than 100 µM throughout.
With `Cc1ccc(NC(=O)CC2C(=O)Nc3ccccc3S2(=O)=O)c(C)c1` (stereo not given), the TGI came to 43.1 µM with DLD-1 colon, 26.9 µM with KM20L2 colon, 41 µM with LXFL 529 NSCLC and 34.8 µM in the test on XF 498 CNS.
With `Cc1cc[n+]2c(c1)-c1cc(C)cc[n+]1CC2`, the TGI with MDA-N and in the test on MDA-MB-435 was more than 100 µM in each case.
Consider `O=C(O)CCC(=O)c1ccc2sc3ccccc3c2c1`, for which the TGI with MDA-N and in the test with MDA-MB-435 was more than 100 µM in each case.
For the compound `O=C(O)c1cccc(C(=O)O)c1S(=O)Cc1ccccc1` (stereo not given), the TGI in the test on MDA-N and with MDA-MB-435 was more than 100 µM throughout.
On to `N#CC(c1ccccn1)c1nc2ccccc2[nH]1` (stereo not given), for which the TGI with DLD-1 colon, with LXFL 529 NSCLC, with M19-MEL melanoma and with XF 498 CNS was more than 100 µM in each case.
As for `COC(=O)CCCCC(=O)c1c(C)[nH]c(/C=C2\N=C(c3ccc[nH]3)C=C2OC)c1C`, in the test on MDA-MB-435, the GI50 is 0.328 µM and the TGI was determined as 1.22 µM.
With `C=CNC(=O)NC(=O)CSc1nnc(-c2ccccc2NC(=O)C(F)(F)F)c(=O)[nH]1`, the TGI was 22.7 µM with DLD-1 colon, more than 100 µM in the test with LXFL 529 NSCLC, more than 100 µM with M19-MEL melanoma and more than 100 µM in the test with XF 498 CNS.
As for `COc1ccc(N(CC(=O)NCCC[Te]c2ccccc2)C(=O)CNC(=O)OC(C)(C)C)cc1`, in the test with MDA-MB-435, the GI50 was 3.31 µM and the TGI was determined as 13.5 µM.
The like results for `CC(C)(O)CNc1nc(Nc2ccnc(C(F)(F)F)c2)nc(-c2cccc(C(F)(F)F)n2)n1` were, in that order, 15.8 µM and 39.9 µM.
For the compound `OC(C#Cc1ccccc1)(c1ccccc1)c1ccccc1`, the TGI in the test with MDA-N came out at 61.7 µM; with MDA-MB-435, 56.3 µM.
For the compound `c1ccc(CCc2cccnc2)nc1`, the TGI in the test on MDA-N and with MDA-MB-435 was more than 100 µM each time.
On to `Oc1cccc2ccc(N/N=C/c3cc(CN4CCOCC4)c(O)c4ncccc34)nc12`, for which, in the test with MDA-MB-435, the GI50 is 0.0165 µM and the TGI turned out to be 2.86 µM.
The matching figures for `COC1=C(OC)C(=O)C(SC/C=C(\C)CCCC(C)CCCC(C)CCCC(C)C)=CC1=O` (stereo not given): 0.845 µM and more than 38.7 µM.
Turning to `Cc1cccc2c3c(sc12)C(c1ccc(Cl)cc1)C(C#N)=C(N)O3` (stereo not given), in the test with MDA-MB-435, the GI50 was 0.182 µM and the TGI was 0.42 µM.
Regarding `OCCNC1c2cc(Cl)ccc2-c2c(Cl)cc(Cl)cc21` (stereo not given), the TGI in the test with MDA-N and in the test on MDA-MB-435 was more than 100 µM throughout.
Turning to `CC1OC(OC2C(O)CC(OC3C(O)CC(OC4CCC5(C)C(CCC6C5CC(O)C5(C)C(C7=CC(=O)OC7)CCC65O)C4)OC3C)OC2C)CC(O)C1O` (stereo not given), in the test on MDA-MB-435, the GI50 is 0.134 µM and the TGI is 0.318 µM.
